Test results published in patent US20060004088A1, “Furan derivatives for preventing and curing osteoporosis and pharmaceutical compositions containing the same” (OCT INC., priority 2002, published 2006).
“Also recorded” adds a separate entry of the source.

Assays:
[1] = system: female white mice with osteoporosis induced by ovariectomy; experiment: Preventive effect 1 on osteoporosis, tibia histology, oral administration; assay type: in vivo; conditions: oral for four weeks immediately after ovariectomy
Description: In order to evaluate effects of the compound of the present invention on treatment and prevention of osteoporosis, female white mice with osteoporosis induced by ovariectomy were used as a disease model. After ovariectomy, mice were administered with the compound of the present invention. Tibias were dissected from the mice, and observed histologically.
After anesthetizing female white mice with 100 mg/kg of Ketamine (Ketara) and 0.15 ml/kg of 2% Xylazine (Rompun), the lumbar dorsum is shaved bilaterally and the exposed skin was prepared for aseptic surgery by a 10% povidone-iodine scrub followed by a 70% alcohol wipe.
A 1-cm incision was made in the central region of the abdomen, and the ovary was identified along with the uterus with caution not to damage the main organs such as the liver and diaphragm. After ligating the uterus with a thread for suturing, the exposed ovary was severed toward both sides and removed. Thereafter, each organ was relocated to its original position, and the incision was closed with a thread for suturing in an interrupted pattern. […]
The daily dosage of the Compound 1 per female white mouse was determined based on 250 g body weight. […] With caution not to exchange the water bottles between the groups, everyday, the number of mice was recorded, and the mixture was prepared based on the number of mice. […]

[2] = system: alkaline phosphatase (ALP) in HOS cells; experiment: Alkaline phosphatase (osteoblast marker enzyme) activity in HOS cells; assay type: cell-based, human; conditions: text summary, concentration not stated
Description: In the following tests, three kinds of cell lines were used. The human osteosarcoma cell lines, MG-63 (ATCC No. CRL-1427) and HOS (ATCC No. CRL-1543), and mouse muscle C2C12 muscle cells (ATCC No. CRL-1772) were purchased from ATCC (American Type Culture Collection, Rockville, USA), and cultured in Dulbecco's modified Eagle's medium (DMEM) supplemented with 10% fetal bovine serum (FBS).
To examine whether the Compound 1 affects positively or negatively osteoblast activity, alkaline phosphatase (ALP) activity was measured. HOS cells were aliquotted onto a 96-well microplate at a density of 5×10^3 cells per well, and cultured. When forming a monolayer, the cells were treated with the naturally extracted compound (Compound 1) at prescribed concentrations. After incubation in 10% FBS-containing DMEM for 48 hrs, the cells were treated with 0.1% Triton X-100/saline for 30 min at 37° C. A portion of each cell lysate was reacted with 0.1 N glycine-NaOh buffer (pH 10.4) for 30 min at 37° C. in the presence of 100 mM nitrophenyl phosphate (PNPP) as a substrate of alkaline phosphate. The amount of PNP (ρ-nitrophenol) released from the substrate PNPP was determined by measuring absorbance at 405 nm. Protein amount was determined by a modified Lowry method, and enzyme activity was designated as nmol substrate cleaved/h/mg protein.

For `O=Cc1ccc(CO)o1` [Compound 1, 5-hydroxymethylfuran-2-carboxyaldehyde], the “cortical and trabecular bone compared to the control group, 40× magnification” value [1] was “marked increase in the cortical and trabecualr bone”, the “trabecular bone loss in tibia, light microscopy” value ([1]; 10 mg/day, 12.5× and 40× magnification) was “such trabecular bone loss was not observed; also recorded: no trabecular bone loss” and the “alkaline phosphatase activity compared to a control not treated” value [2] was “about 121%”. The “alkaline phosphatase activity compared to a control not treated” value ([2]; listed as Example 1) was 120%.
